Measured values reported in PMC3713097 (Chemical research in toxicology, 2013).
Where two headings read alike, the source gives them in different places.

Experiments:
P450 1B1 [1] = target: T1, P450 1B1 (Homo sapiens, UniProt Q16678, L432V); conditions: 10 nM P450, 2.5 µM procarcinogen, means ± range of duplicate experiments
T1 sequence (Q16678 1-543 L432V): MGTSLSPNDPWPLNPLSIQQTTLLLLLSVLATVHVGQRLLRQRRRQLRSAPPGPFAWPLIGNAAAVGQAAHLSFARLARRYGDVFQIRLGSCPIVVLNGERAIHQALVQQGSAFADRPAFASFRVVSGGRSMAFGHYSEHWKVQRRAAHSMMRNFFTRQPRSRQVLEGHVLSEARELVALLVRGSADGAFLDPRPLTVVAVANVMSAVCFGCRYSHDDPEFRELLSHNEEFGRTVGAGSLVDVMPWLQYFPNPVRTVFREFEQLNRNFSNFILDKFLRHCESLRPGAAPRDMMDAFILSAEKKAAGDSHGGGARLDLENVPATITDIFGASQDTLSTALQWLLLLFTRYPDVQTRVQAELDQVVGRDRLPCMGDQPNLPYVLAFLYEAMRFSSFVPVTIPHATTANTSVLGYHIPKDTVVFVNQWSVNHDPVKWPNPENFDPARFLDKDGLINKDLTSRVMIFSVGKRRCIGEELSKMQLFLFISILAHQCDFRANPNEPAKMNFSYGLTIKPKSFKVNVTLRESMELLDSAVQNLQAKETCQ

P450 2A6 [2] = target: T2, P450 2A6 (Homo sapiens, UniProt P11509); conditions: 10 nM P450, 2.5 µM procarcinogen, means ± range of duplicate experiments
T2 sequence (P11509 1-494): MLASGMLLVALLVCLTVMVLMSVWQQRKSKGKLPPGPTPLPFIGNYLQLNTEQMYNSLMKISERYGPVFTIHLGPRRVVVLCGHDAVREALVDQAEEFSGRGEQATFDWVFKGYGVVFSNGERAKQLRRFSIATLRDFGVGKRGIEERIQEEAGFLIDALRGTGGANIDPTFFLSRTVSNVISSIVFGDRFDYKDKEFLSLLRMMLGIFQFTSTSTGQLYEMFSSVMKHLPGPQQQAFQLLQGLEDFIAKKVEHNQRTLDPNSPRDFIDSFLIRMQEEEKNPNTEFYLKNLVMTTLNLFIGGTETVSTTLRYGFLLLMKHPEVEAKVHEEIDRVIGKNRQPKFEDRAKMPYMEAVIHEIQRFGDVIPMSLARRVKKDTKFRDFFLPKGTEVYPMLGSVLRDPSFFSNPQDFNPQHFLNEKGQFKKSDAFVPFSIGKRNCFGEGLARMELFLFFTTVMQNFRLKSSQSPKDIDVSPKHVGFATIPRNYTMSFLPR

human P450 2A13 = target: T3, human P450 2A13 (Homo sapiens, UniProt Q16696); conditions: 10 nM P450, 2.5 µM procarcinogen, means ± range of duplicate experiments
T3 sequence (Q16696 31-494 limits assumed): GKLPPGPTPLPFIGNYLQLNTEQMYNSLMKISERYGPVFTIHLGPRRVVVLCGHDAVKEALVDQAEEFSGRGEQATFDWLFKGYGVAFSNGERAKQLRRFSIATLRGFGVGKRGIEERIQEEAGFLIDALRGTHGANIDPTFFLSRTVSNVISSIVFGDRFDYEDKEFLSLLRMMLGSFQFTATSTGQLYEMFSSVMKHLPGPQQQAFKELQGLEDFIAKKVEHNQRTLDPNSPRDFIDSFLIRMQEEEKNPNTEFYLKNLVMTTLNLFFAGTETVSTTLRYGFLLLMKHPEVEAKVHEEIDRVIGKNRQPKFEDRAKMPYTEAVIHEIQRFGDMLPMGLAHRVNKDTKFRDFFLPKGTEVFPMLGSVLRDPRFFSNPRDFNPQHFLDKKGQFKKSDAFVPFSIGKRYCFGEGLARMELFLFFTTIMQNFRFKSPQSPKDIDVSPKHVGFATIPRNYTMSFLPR

P450 1B1 [3] = target: T1, P450 1B1; assay: Spectral binding titration with purified P450 1B1
P450 2A13 = target: T4, P450 2A13 (Homo sapiens, UniProt Q16696); assay: Spectral binding titration with purified P450 2A13
T4 sequence (Q16696 with tags, fused parts or gaps limits assumed): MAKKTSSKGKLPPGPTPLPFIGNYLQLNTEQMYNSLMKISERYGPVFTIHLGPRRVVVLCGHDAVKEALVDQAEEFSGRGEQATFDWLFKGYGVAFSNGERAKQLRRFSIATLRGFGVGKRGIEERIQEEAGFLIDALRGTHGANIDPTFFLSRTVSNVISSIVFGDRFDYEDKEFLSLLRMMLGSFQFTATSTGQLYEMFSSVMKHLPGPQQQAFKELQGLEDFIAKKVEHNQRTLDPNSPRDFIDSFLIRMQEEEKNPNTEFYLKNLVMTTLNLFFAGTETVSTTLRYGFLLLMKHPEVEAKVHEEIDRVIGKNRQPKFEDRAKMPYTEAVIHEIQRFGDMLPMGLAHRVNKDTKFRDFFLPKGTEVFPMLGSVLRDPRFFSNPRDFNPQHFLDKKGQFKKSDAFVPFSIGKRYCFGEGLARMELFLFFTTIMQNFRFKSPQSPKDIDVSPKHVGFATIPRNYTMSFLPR

P450 2A6 [4] = target: T2, P450 2A6; assay: Spectral binding titration with purified P450 2A6
[5] = P450 1B1, Reverse Type I spectra
[6] = P450 1B1, Reverse Type I spectra, ± SE
[7] = P450 2A13, Type I spectra, ± SE

| Compound | activation of procarcinogens umu gene expression (P450 1B1 [1]) | activation of procarcinogens umu gene expression (P450 2A6 [2]) | activation of procarcinogens umu gene expression (human P450 2A13) | Kd (P450 1B1 [3]) | ΔAmax/ Ks (P450 1B1 [3]; [5]) | ΔAmax (P450 1B1 [3]; [6]) | Kd (P450 2A13) | Kd (P450 2A6 [4]) | further results |
| --- | --- | --- | --- | --- | --- | --- | --- | --- | --- |
| CC(=O)Nc1ccc2c(c1)Cc1ccccc1-2 [2-AAF, 2-acetamidofluorene] | <10 units/min/nmol P450 | <10 units/min/nmol P450 | <10 units/min/nmol P450 | 20 ± 7.8 µM | 0.0018 | 0.035 ± 0.009 | – | – | – |
| O=[N+]([O-])c1ccc2ccc3cccc4ccc1c2c34 [1-nitropyrene] | <10 units/min/nmol P450 | <10 units/min/nmol P450 | <10 units/min/nmol P450 | – | 0.026 | 0.037 ± 0.001 | 0.23 ± 0.08 µM | > 20 µM | ΔAmax/ Ks (P450 2A13; P450 2A13, Type I spectra): 0.24; ΔAmax (P450 2A13; [7]): 0.055 ± 0.004; Kd (P450 1B1 [3]; human, pH 7.4): 1.4 ± 0.001 µM |
| OC1c2cccc3ccc4c5ccccc5cc(c4c23)C1O (stereo not drawn) [B[a]P-4,5-diol, 4,5-dihydroxy-4,5-dihydrobenzo[a]pyrene] | – | – | – | 23 ± 10 µM | – | – | – | – | – |
| c1ccc2c(c1)ccc1ccc3ccccc3c12 [B[c]Phe, benzo[c]phenanthrene] | 25 ± 10 units/min/nmol P450 | 22 ± 8 units/min/nmol P450 | 55 ± 11 units/min/nmol P450 | 2.5 ± 0.31 µM | 0.016 | 0.039 ± 0.001 | 1.1 ± 0.44 µM | > 20 µM | ΔAmax/ Ks (P450 2A13; P450 2A13, Type I spectra): 0.045; ΔAmax (P450 2A13; [7]): 0.049 ± 0.005 |
| c1ccc2cc3c(ccc4ccccc43)cc2c1 [B[a]A, benz[a]anthracene] | – | – | – | – | – | – | – | – | Kd (P450 2A13; read-out: Ks, P450 2A13, Type I spectra, 1.0 µM P450, pH 7.4, ± SE): > 20 µM; Kd (P450 1B1 [3]; read-out: Ks, P450 1B1, Reverse Type I spectra, 1.0 µM P450, pH 7.4, ± SE): > 20 µM |
| Cc1cc2ccccc2c2ccc3c(c12)C=CC(O)C3O (stereo not drawn) [5MeCh-1,2-diol, 1,2-dihydroxy-1,2-dihydro-5-methylchrysene] | 2600 ± 180 units/min/nmol P450 | 52 ± 11 units/min/nmol P450 | 86 ± 15 units/min/nmol P450 | > 20 µM | – | – | > 20 µM | – | – |
| Nc1ccc2c(c1)Cc1ccccc1-2 [2-AF, 2-aminofluorene] | – | – | – | 4.6 ± 1.3 µM | – | – | > 20 µM | > 20 µM | – |
| aflatoxin B1 [AFB1] | – | – | – | – | – | – | – | – | Kd (P450 2A13; read-out: Ks, pH 7.4): > 20 µM; Kd (P450 2A6 [4]; read-out: Ks, pH 7.4): > 20 µM |
| c1cc2c3c(cccc3c1)CC2 [acenaphthene] | <10 units/min/nmol P450 | <10 units/min/nmol P450 | <10 units/min/nmol P450 | > 20 µM | – | – | 0.48 ± 0.1 µM | 1.2 ± 0.21 µM | ΔAmax/ Ks (P450 2A13; P450 2A13, Type I spectra): 0.15; ΔAmax (P450 2A13; [7]): 0.074 ± 0.005; ΔAmax/ Ks (P450 2A6 [4]; P450 2A6, Type I spectra): 0.057; ΔAmax (P450 2A6 [4]; P450 2A6, Type I spectra, ± SE): 0.068 ± 0.002; spectral interaction with P450 2A6 (Type I binding spectra) (P450 2A6 [4]; result in words): interacted |
| Cc1c2c(c(C)c3ccccc13)C(O)C(O)c1ccccc1-2 (stereo not drawn) [7,12-DMBA-5,6-diol, 5,6-dihydroxy-5,6-dihydro-7,12-dimethylbenz[a]anthracene] | – | – | – | 38 ± 3.7 µM | 0.0012 | 0.044 ± 0.003 | – | – | – |
| Cn1c(N)nc2ncc(-c3ccccc3)cc21 [PhIP, 2-amino-1-methyl-6-phenylimidazo[4,5-b]pyridine] | <10 units/min/nmol P450 | <10 units/min/nmol P450 | <10 units/min/nmol P450 | > 20 µM | – | – | – | – | – |
| Nc1ccc2cc3ccccc3cc2c1 [2-AA, 2-aminoanthracene] | 1900 ± 210 units/min/nmol P450 | 1200 ± 89 units/min/nmol P450 | 560 ± 40 units/min/nmol P450 | 33 ± 36 µM | 0.0026 | 0.085 ± 0.076 | > 20 µM | > 20 µM | – |
| Cc1cc2ccccc2c2ccc3ccccc3c12 [5-methylchrysene] | – | – | – | 6.9 ± 2.4 µM | 0.0064 | 0.044 ± 0.008 | > 20 µM | – | – |
| c1ccc2c(c1)cc1ccc3cccc4ccc2c1c34 [B[a]P, benzo[a]pyrene] | – | – | – | > 20 µM | – | – | > 20 µM | > 20 µM | – |
| OC1C=Cc2c(ccc3c4ccccc4c4ccccc4c23)C1O (stereo not drawn) [B[g]C-11,12-diol, 11,12-dihydroxy-11,12-dihydrobenzo[g]chrysene] | 207 ± 25 units/min/nmol P450 | <10 units/min/nmol P450 | <10 units/min/nmol P450 | – | – | – | – | – | – |
| OC1C=C2c3ccccc3-c3cccc(c32)C1O (stereo not drawn) [FA-2,3-diol, 2,3-dihydroxy-2,3-dihydrofluoranthene] | 30 ± 11 units/min/nmol P450 | 36 ± 8 units/min/nmol P450 | 88 ± 13 units/min/nmol P450 | 7.4 ± 1.3 µM | 0.0058 | 0.043 ± 0.003 | 0.86 ± 0.16 µM | – | ΔAmax/ Ks (P450 2A13; P450 2A13, Type I spectra): 0.060; ΔAmax (P450 2A13; [7]): 0.052 ± 0.003 |
| Cn1c(N)nc2c3cccnc3ccc21 [IQ, 2-amino-3-methylimiidazo[4,5-f]quinoline] | 220 ± 29 units/min/nmol P450 | 75 ± 11 units/min/nmol P450 | 430 ± 40 units/min/nmol P450 | – | – | – | – | – | – |
| OC1C=Cc2c(ccc3ccc4ccccc4c23)C1O (stereo not drawn) [B[c]Phe-3,4-diol, 3,4-dihydroxy-3,4-dihydrobenzo[c]phenanthrene] | 140 ± 21 units/min/nmol P450 | 33 ± 10 units/min/nmol P450 | 45 ± 8 units/min/nmol P450 | > 20 µM | – | – | > 20 µM | – | – |
| c1ccc2c(c1)ccc1c3ccccc3ccc21 [chrysene] | – | – | – | > 20 µM | – | – | > 20 µM | – | – |
| OC1C=Cc2c(ccc3c2ccc2ccccc23)C1O (stereo not drawn) [chrysene-1,2-diol, 1,2-dihydroxy-1,2-dihydrochrysene] | 220 ± 19 units/min/nmol P450 | <10 units/min/nmol P450 | <10 units/min/nmol P450 | > 20 µM | – | – | > 20 µM | – | – |
